Earlier results in patent publication US20030073069A1, “Drug rescue by redesign of ADMET/PK properties” (priority 2001, published 2003).
Where two headings read alike, the source gives them in different places.

How the values were obtained:
P450 [1] = tested on: P450
P450 [2] = details: induction of a P450

Structure (SMILES) | No. of currently known drug interactions that involve the compound, Inhibition (P450 [1]) | No. of currently known drug interactions that involve the compound, Induction (P450 [2]) | No. of currently known drug interactions that involve the compound, Inhibition (P450 [1]; inhibition of a P450)
CCN(CC)CCN1C(=O)CN=C(c2ccccc2F)c2cc(Cl)ccc21 [flurazepam] | 7 | 3 | 
CCC1(c2ccccc2)NC(=O)N(C)C1=O (stereo not shown) [mephenytoin] |  | 2 | 4
C[C@H]1C[C@@H]2[C@H]([C@@H](O)C[C@@]3(C)[C@H]2CC[C@]3(O)C(=O)CO)[C@@]2(C)C=CC(=O)C=C12 [methylprednisolone] |  | 14 | 1
Cc1nnc2n1-c1ccc(Cl)cc1C(c1ccccc1Cl)=NC2 [triazolam] | 15 | 3 | 
CN(C)CCC=C1c2ccccc2CCc2ccccc21 [amitriptyline] |  | 11 | 5
CN(C)CCC=C1c2ccccc2COc2ccccc21 [doxepin] |  | 11 | 4
CCOC(=O)C1=C(C)NC(C)=C(C(=O)OC)C1c1cccc(Cl)c1Cl (stereo not shown) [felodipine] |  | 4 | 1
C=C[C@H]1C[N@@]2CC[C@H]1C[C@@H]2[C@@H](O)c1ccnc2ccc(OC)cc12 [quinidine] |  | 13 | 4
C[C@]12C=CC(=O)C=C1CC[C@@H]1[C@@H]2[C@@H](O)C[C@@]2(C)[C@H]1CC[C@]2(O)C(=O)CO [prednisolone] |  | 10 | 1
Fc1ccccc1C1=NCC(=S)N(CC(F)(F)F)c2ccc(Cl)cc21 [quazepam] | 7 | 3 | 
CN1CCN(C2=Nc3cc(Cl)ccc3Nc3ccccc32)CC1 [clozapine] |  | 1 | 2
O=C1NC(=O)C(c2ccccc2)(c2ccccc2)N1 [phenytoin] |  | 1 | 4
CC(CN(C)C)CN1c2ccccc2CCc2ccccc21 (stereo not shown) [trimipramine] |  | 9 | 4
O=C1CC2(CCCC2)CC(=O)N1CCCCN1CCN(c2ncccn2)CC1 [buspirone] |  | 2 | 
C[C@H]1c2cccc(O)c2C(=O)C2=C(O)[C@]3(O)C(=O)C(C(N)=O)=C(O)[C@@H](N(C)C)[C@@H]3[C@@H](O)[C@@H]21 [doxycycline] |  | 3 | 
CC(=O)N1CCN(c2ccc(OCC3COC(Cn4ccnc4)(c4ccc(Cl)cc4Cl)O3)cc2)CC1 (stereo not shown) [ketoconazole] |  | 2 | 
C=C[C@H]1C[N@@]2CC[C@H]1C[C@H]2[C@H](O)c1ccnc2ccc(OC)cc12 [quinine] |  | 2 | 
CC(=O)Nc1ccc(O)cc1 [acetaminophen] |  | 4 | 
